Laboratory results: patent publication US20100286219A1, “1, 3-Dihydroimidazoles for Treating Cardiovascular Disorders” (BIAL - PORTELA & CA S.A., priority 2007, published 2010)

T1: human DβH (Homo sapiens, UniProt P09172)
T1 construct: endogenous in cells; host or cells: SK-N-SH cells
T1 sequence (P09172 1-617): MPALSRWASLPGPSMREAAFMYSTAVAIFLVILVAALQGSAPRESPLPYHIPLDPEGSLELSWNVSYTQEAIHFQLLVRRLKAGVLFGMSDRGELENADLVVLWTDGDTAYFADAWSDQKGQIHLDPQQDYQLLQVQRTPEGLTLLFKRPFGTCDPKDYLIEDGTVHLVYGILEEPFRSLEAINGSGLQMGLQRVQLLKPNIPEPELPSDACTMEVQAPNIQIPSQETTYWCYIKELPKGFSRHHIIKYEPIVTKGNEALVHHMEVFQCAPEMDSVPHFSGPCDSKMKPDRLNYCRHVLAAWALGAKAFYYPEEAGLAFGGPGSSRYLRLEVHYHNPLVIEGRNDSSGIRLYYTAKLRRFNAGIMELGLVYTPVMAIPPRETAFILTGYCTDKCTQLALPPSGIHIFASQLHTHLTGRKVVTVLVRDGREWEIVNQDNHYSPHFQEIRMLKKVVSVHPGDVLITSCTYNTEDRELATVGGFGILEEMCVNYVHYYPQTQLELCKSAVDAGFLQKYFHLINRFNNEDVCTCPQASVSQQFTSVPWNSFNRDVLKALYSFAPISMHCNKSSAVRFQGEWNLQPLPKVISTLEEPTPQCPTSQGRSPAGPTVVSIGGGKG

T2: DβH (Mus musculus, UniProt Q64237)
T2 construct: noradrenaline levels in the mouse left ventricle and brain parietal cortex 9 h after oral administration; from tissue; host or cells: mouse left ventricle and brain parietal cortex (in vivo)
T2 sequence (Q64237 1-622): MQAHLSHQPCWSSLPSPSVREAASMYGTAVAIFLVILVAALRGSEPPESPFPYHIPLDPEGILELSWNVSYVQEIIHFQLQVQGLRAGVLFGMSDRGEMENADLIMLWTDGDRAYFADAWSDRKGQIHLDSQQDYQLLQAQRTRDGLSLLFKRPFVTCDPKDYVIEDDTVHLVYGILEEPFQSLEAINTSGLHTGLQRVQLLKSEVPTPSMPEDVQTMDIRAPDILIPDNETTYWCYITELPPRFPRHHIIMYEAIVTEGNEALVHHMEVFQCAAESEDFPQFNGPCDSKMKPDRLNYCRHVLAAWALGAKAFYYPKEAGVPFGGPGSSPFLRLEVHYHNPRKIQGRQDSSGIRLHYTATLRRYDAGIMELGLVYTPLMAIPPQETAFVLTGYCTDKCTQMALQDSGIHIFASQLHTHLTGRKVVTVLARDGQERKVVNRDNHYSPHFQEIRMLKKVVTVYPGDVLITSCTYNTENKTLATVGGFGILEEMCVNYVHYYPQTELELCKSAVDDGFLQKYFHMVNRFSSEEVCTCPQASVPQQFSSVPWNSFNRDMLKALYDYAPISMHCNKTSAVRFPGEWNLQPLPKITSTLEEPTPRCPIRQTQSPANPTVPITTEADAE

T3: DβH (Rattus norvegicus, UniProt Q05754)
T3 construct: noradrenaline levels in the rat heart (left atrium and left ventricle) and brain (frontal and parietal cortex); from tissue; host or cells: rat heart (left atrium, left ventricle) and brain (frontal and parietal cortex), in vivo
T3 sequence (Q05754 1-620): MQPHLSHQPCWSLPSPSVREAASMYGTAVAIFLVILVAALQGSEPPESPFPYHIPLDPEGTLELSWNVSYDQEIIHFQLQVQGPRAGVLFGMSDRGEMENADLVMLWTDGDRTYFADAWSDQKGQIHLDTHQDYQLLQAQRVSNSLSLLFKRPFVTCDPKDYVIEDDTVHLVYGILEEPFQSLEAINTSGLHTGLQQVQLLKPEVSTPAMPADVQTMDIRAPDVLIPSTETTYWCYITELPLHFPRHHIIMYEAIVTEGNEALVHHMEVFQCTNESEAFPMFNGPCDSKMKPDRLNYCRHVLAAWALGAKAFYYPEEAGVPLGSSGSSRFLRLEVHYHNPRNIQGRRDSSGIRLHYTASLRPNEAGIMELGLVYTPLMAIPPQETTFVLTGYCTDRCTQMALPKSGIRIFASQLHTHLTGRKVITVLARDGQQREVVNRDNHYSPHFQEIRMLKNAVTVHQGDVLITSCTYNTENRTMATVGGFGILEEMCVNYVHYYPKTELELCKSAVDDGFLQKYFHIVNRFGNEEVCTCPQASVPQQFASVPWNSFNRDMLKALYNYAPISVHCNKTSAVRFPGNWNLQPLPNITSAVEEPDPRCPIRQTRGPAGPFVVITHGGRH

B1: human DβH (Homo sapiens) (protein)
chain: MPALSRWASLPGPSMREAAFMYSTAVAIFLVILVAALQGSAPRESPLPYHIPLDPEGSLELSWNVSYTQEAIHFQLLVRRLKAGVLFGMSDRGELENADLVVLWTDGDTAYFADAWSDQKGQIHLDPQQDYQLLQVQRTPEGLTLLFKRPFGTCDPKDYLIEDGTVHLVYGILEEPFRSLEAINGSGLQMGLQRVQLLKPNIPEPELPSDACTMEVQAPNIQIPSQETTYWCYIKELPKGFSRHHIIKYEPIVTKGNEALVHHMEVFQCAPEMDSVPHFSGPCDSKMKPDRLNYCRHVLAAWALGAKAFYYPEEAGLAFGGPGSSRYLRLEVHYHNPLVIEGRNDSSGIRLYYTAKLRRFNAGIMELGLVYTPVMAIPPRETAFILTGYCTDKCTQLALPPSGIHIFASQLHTHLTGRKVVTVLVRDGREWEIVNQDNHYSPHFQEIRMLKKVVSVHPGDVLITSCTYNTEDRELATVGGFGILEEMCVNYVHYYPQTQLELCKSAVDAGFLQKYFHLINRFNNEDVCTCPQASVSQQFTSVPWNSFNRDVLKALYSFAPISMHCNKSSAVRFQGEWNLQPLPKVISTLEEPTPQCPTSQGRSPAGPTVVSIGGGKG

What was measured:
human DβH = target: T1, human DβH; assay: DβH activity in SK-N-SH cells (β-hydroxylation of dopamine to noradrenaline); type: cell-based; details: for IC50 against human DβH activity (in words): concentration-dependent decrease in β-hydroxylation of dopamine
DβH [1] = target: T2, DβH; assay: Noradrenaline tissue levels in mouse heart and brain after oral administration; type: in vivo; details: for Time of maximum effect (Tmax) for noradrenaline tissue reduction: mouse heart (left ventricle), 100 mg/kg oral; for recovery of initial noradrenaline tissue levels / duration of action (in words): mouse heart; for recovery of initial noradrenaline tissue levels: 100 mg/kg, at 24 h; for duration of action (in words): time course at 100 mg/kg; for dose at which maximal inhibitory effect was attained: mouse left ventricle noradrenaline, 9 h after administration; for effect on noradrenaline levels in left ventricle / effect on noradrenaline tissue levels in brain parietal cortex: mouse, 9 h after oral administration
Protocol: FIG. 1 is a graph showing the time-dependent decrease of noradrenaline levels in the left ventricle of mice treated orally with 100 mg/kg of 4 or nepicastat 1. Symbols are means of 5 determinations per group; vertical lines indicate S.E.M.
FIG. 2 is two graphs showing noradrenaline levels in the mouse left ventricle and brain parietal cortex 9 h after oral administration of 4 or nepicastat 1. Symbols are means of 5 determinations per group; vertical lines indicate S.E.M.
Time of maximum effect (Tmax) for noradrenaline tissue reduction by both 4 and 1 appears to be at 9 h post-dose (FIG. 1). Thereafter, noradrenaline tissue levels recover, reaching 50% recovery of initial tissue levels at 24 h.
For both 4 and 1, the maximal inhibitory effect was attained at a dose of 100 mg/kg.

DβH [2] = target: T3, DβH; assay: Noradrenaline tissue levels in rat heart and brain after oral administration; type: in vivo; details: for dose dependence of effect upon noradrenaline / time of maximum effect upon noradrenaline: rat (data not shown); for effect on noradrenaline tissue levels in brain parietal cortex and brain frontal cortex: 9 h after oral administration
Protocol: FIG. 3 is four graphs showing noradrenaline levels in the rat heart (left atrium and left ventricle) and brain (frontal and parietal cortex) 9 h after the oral administration of 4 or nepicastat 1. Columns are means of 5 determinations per group; vertical lines indicated S.E.M.

[3] = substrate: NCCc1ccc(O)c(O)c1; assay: cells, lysate or membranes; details: other: SK-N-SH cells, increasing concentrations of dopamine

| Molecule | inhibition of DβH activity (in words) (human DβH; as listed in Table 1, 5 μM) | IC50 against human DβH activity (in words) (human DβH) | Time of maximum effect (Tmax) for noradrenaline tissue reduction (DβH [1]) [h] | recovery of initial noradrenaline tissue levels (DβH [1]) [%] | duration of action (in words) (DβH [1]) | dose at which maximal inhibitory effect was attained (DβH [1]) [mg/kg] | effect on noradrenaline levels in left ventricle (DβH [1]) | effect on noradrenaline tissue levels in brain parietal cortex (DβH [1]) | site of DβH inhibition, periphery versus brain (conclusion) (DβH [2]; concluded from mouse and rat studies) | dose dependence of effect upon noradrenaline (DβH [2]) | time of maximum effect upon noradrenaline (DβH [2]) [h] | inhibitory effect upon noradrenaline levels in left atrium and left ventricle (DβH [2]; rat, 100 mg/kg oral, 9 h, compared with 1 (100 mg/kg)) | effect on noradrenaline tissue levels in brain parietal cortex and brain frontal cortex (DβH [2]; rat) | DβH activity, Mean ± SEM, % of control (human DβH; compound 5 μM) | Km [3] [µM] | Vmax [3] [nmol mg protein-1 h-1] |
| --- | --- | --- | --- | --- | --- | --- | --- | --- | --- | --- | --- | --- | --- | --- | --- | --- |
| Cl.NCCc1c[nH]c(=S)n1[C@H]1COc2c(F)cc(F)cc2C1 [Compound 4, (R)-5-(2-aminoethyl)-1-(6,8-difluorochroman-3-yl)-1,3-dihydroimidazole-2-thione hydrochloride] | markedly inhibit | low nM range | 9 | 50 | long acting | 100 | reduced noradrenaline levels in a dose-dependent manner | failed to affect | exclusively in the periphery, being devoid of inhibitory effects in the brain | dependent on the dose administered | 9 | more pronounced than those elicited by 1 | failed to affect | – | – | – |
| NCc1c[nH]c(=S)n1[C@H]1CCc2c(F)cc(F)cc2C1 [Nepicastat 1, nepicastat, reference compound] | – | low nM range | 9 | 50 | long acting | 100 | reduced noradrenaline levels in a dose-dependent manner | produced a dose-dependent decrease | – | dependent on the dose administered | 9 | – | produced a marked decrease | 0.0 ± 0.3 % of control | – | – |
| B1 | – | – | – | – | – | – | – | – | – | – | – | – | – | – | 20.6 ± 1.6 | 153.8±4.4 |
